Data taken from patent publication US10849907B2, “Imidazopyridine derivatives and the use thereof as medicament” (Boehringer Ingelheim International GmbH, priority 2017, dated 2020).

Columns and labels:
[1] = Metabolic stability in pooled human liver microsomes; assay type: in vitro ADME; details: pH 7.6; pooled human liver microsomes 1 mg/mL, 1 μM compound, 37° C., NADPH; read-out: Half-life - t½ human liver microsomes
Description: Stability in human liver microsomes refers to the susceptibility of compounds to biotransformation in the context of selecting and/or designing drugs with favorable pharmacokinetic properties. The primary site of metabolism for many drugs is the liver. Human liver microsomes contain the cytochrome P450s (CYPs), and thus represent a model system for studying drug metabolization in vitro. Enhanced stability in human liver microsomes is associated with several advantages, including increased bioavailability and adequate half-life, which can enable lower and less frequent dosing of patients. Thus, enhanced stability in human liver microsomes is a favorable characteristic for compounds that are to be used for drugs.
The metabolic degradation of the test compound was assayed at 37° C. with pooled human liver microsomes. The final incubation volume of 60 μl per time point contains TRIS buffer pH 7.6 at room temperature (0.1 M), magnesium chloride (5 mM aqueous solution), microsomal protein (1 mg/mL for human) and the test compound at a final concentration of 1 μM. Following a short preincubation period at 37° C., the reactions were initiated by addition of betanicotinamide adenine dinucleotide phosphate, reduced form (NADPH, 1 mM), and terminated by transferring an aliquot into solvent after different time points. After centrifugation (10000 g, 5 min), an aliquot of the supernatant was assayed by LC-MS/MS for the amount of parent compound. The half-life was determined by the slope of the semi-logarithmic plot of the concentration-time profile.

NMDA NR1/NR2B receptor = target: T1, NMDA NR1/NR2B receptor (Homo sapiens, UniProt Q05586+Q13224); test: In vitro NMDA NR1/NR2b cell assay (FLIPR, intracellular calcium induced by glycine/glutamate); assay type: cell-based; details: HEK293 cells expressing NMDA NR1/NR2B, 20 μM glycine, 1 μM glutamate, compounds of the invention (Table 1)
T1 construct: host or cells: HEK293, tetracycline-inducible expression
Experimental: A human HEK293 cell line with tetracyclin-inducible expression of NMDA NR1/NR2B receptor was used as a test system for compound efficacy and potency. The cell line was purchased from ChanTest, Catalog # CT6121. Compound activity was determined by measuring the effect of compounds on intracellular calcium concentration induced by glycine/glutamate agonism in a FLIPRtetra system (Molecular Devices).
The cells were obtained as frozen cells in cryo-vials and stored until use at −150° C. Cells were grown in culture medium (DMEM/F12, 10% FBS, 5 μg/mL Blasticidin, 150 μg/mL Zeozin, 500 μg/mL Geneticin). […] For sub-culturing the cells were detached from flasks by Versene. For the assay, cells were detached, washed twice with induction medium (DMEM/F12 without glutamine, 10% FBS, 2 μg/mL Tetracycline, 2 mM Ketamine) and seeded to 384 well pure coat amine plates (BD 359324, 50000 cells per well in 50 μl) 48 h prior to assay in induction medium.
The test compounds were dissolved in 100% DMSO at a concentration of 10 mM and in a first step diluted in DMSO to a concentration of 5 mM, followed by serial dilution steps in 100% DMSO. Dilution factor and number of dilution steps may vary according to needs. Typically 8 different concentrations by 1:5 dilutions were prepared in duplicate, further intermediate dilutions (1:37.5) of the substances were carried out with aqueous assay buffer (137 mM NaCl, 4 mM KCl, 1.8 mM CaCl, 10 mM HEPES, 10 mM Glucose, pH 7.4) resulting in a compound concentration 3 times above the final test concentration and DMSO at 2.7% resulting in 0.9% final DMSO concentration in the assay.
At the assay day cells were washed 3× with assay puffer, 10 μL buffer remained in the wells after washing. 10 μL Ca kit loading buffer (AAT Bioquest) was added to the cells and the plates were incubated with lid for 60 minutes at r.t. 20 μl assay buffer containing 60 μM glycine (20 μM final) and 3 μM glutamate (1 μM final) was added to column 1-23. Fluorescence (indicating the calcium influx as a result of the NR1/NR2B ion channel activation) was read on the FLIPRtetra device for 60 seconds to monitor the glutamate induced effects. After 2 minutes 20 μL of compound or controls (row 1-22) in assay buffer were carefully added to the wells. […] The average of 2 measurements at 5 minutes and 5 min 10 seconds after compound addition is calculated and further used for IC50 calculations. Each assay microtiter plate contained wells (in column 23 or 24) with DMSO controls instead of compound as controls for glycine/glutamate induced fluorescence (high controls) and wells with 1 μM of a reference NR2b NAM as low controls (Compound 22; reference: Layton, Mark E et al, ACS Chemical Neuroscience 2011, 2(7), 352-362).
The output file of the reader contains the well number and measured average fluorescence units. For data evaluation and calculation, the measurement of the low control was set as 0% control and the measurement of the high control was set as 100% control. The IC50 values were calculated using the standard 4 parameter logistic regression formula. Calculation: [y=(a−d)/(1+(x/c)^b)+d], a=low value, d=high value; x=conc M; c=IC50 M; b=slope.

T1 sequence (Q13224 27-1484, other chains not shown): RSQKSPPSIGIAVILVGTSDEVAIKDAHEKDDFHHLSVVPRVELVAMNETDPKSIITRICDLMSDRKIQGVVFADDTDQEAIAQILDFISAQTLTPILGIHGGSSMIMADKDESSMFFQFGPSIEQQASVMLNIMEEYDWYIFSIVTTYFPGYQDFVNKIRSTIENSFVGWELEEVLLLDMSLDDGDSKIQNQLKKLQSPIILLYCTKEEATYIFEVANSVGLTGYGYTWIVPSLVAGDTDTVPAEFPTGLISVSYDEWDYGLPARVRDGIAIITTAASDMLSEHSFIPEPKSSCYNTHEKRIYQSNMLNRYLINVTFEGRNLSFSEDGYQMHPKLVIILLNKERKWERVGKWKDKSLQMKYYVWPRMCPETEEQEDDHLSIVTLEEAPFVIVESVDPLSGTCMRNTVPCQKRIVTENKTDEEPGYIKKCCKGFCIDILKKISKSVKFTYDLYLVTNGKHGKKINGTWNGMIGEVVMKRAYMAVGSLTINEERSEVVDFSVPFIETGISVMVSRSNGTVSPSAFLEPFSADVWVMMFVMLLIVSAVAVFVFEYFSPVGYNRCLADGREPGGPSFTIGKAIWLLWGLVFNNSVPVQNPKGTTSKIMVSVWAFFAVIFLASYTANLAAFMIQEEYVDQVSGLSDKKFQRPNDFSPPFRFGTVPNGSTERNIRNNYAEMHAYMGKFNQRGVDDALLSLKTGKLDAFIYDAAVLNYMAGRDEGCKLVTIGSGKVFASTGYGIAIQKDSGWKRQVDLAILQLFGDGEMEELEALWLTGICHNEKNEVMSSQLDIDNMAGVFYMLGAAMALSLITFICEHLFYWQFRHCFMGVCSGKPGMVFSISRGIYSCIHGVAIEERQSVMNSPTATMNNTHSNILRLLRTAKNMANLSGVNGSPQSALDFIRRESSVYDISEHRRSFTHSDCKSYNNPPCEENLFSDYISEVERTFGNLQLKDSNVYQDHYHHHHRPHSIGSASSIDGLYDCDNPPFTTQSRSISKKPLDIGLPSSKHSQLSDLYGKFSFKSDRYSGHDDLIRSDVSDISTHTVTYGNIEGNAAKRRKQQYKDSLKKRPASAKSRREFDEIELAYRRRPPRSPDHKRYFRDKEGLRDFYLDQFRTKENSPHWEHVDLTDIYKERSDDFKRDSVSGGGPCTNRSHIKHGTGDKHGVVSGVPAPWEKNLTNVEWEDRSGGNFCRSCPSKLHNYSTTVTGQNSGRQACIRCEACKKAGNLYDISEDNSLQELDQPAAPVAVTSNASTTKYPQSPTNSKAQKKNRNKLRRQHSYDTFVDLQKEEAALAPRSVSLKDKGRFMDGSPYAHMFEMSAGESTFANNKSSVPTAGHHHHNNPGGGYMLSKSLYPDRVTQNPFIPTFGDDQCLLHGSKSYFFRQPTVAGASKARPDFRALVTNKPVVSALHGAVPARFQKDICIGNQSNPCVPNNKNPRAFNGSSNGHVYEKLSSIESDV

| Compound | half-life at 1 µM [1] [min] | IC50 (NMDA NR1/NR2B receptor) [nM] |
| --- | --- | --- |
| O=C(OCc1cccc(F)c1)N1CCO[C@H](c2nc3cccnc3[nH]2)C1 [Example 1] | 38 | 409 |
| O=C(OCc1ccc(F)cc1)N1CCO[C@H](c2nc3cccnc3[nH]2)C1 [Example 2] | 76 | 83 |
| Cc1ccccc1COC(=O)N1CCO[C@H](c2nc3cccnc3[nH]2)C1 [Example 8] | 14 | 404 |
| Cc1cccc(F)c1COC(=O)N1CCO[C@H](c2nc3cccnc3[nH]2)C1 [Example 10] | 12 | 156 |
| Cc1ccc(COC(=O)N2CCO[C@H](c3nc4cccnc4[nH]3)C2)c(F)c1 [Example 11] | 24 | 55 |
| Cc1ccc(COC(=O)N2CCO[C@H](c3nc4cccnc4[nH]3)C2)cc1F [Example 12] | 36 | 73 |
| O=C(OCc1ccc(F)cc1Cl)N1CCO[C@H](c2nc3cccnc3[nH]2)C1 [Example 13] | 37 | 122 |
| O=C(OCc1ccccc1Cl)N1CCO[C@H](c2nc3cccnc3[nH]2)C1 [Example 14] | 27 | 121 |
| O=C(OCc1cccc(F)c1F)N1CCO[C@H](c2nc3cccnc3[nH]2)C1 [Example 15] | 86 | 93 |
| O=C(OCc1c(F)cccc1F)N1CCO[C@H](c2nc3cccnc3[nH]2)C1 [Example 16] | > 130 | 104 |
| O=C(OCc1ccccc1)N1CCO[C@H](c2nc3cccnc3[nH]2)C1 [Example 17] | > 130 | 76 |
| Cc1ccc(COC(=O)N2CCO[C@H](c3nc4cccnc4[nH]3)C2)cc1 [Example 18] | 51 | 54 |
| O=C(OCc1ccc(F)cc1F)N1CCO[C@H](c2nc3cccnc3[nH]2)C1 [Example 19] | 130 | 128 |
| O=C(OCc1ccc(C(F)F)cc1)N1CCO[C@H](c2nc3cccnc3[nH]2)C1 [Example 26] | > 130 | 78 |
| O=C(OCc1ccccc1F)N1CCO[C@H](c2nc3cccnc3[nH]2)C1 [Example 27] | 130 | 95 |
| O=C(OCc1ccc(Cl)cc1)N1CCO[C@H](c2nc3cccnc3[nH]2)C1 [Example 28] | > 130 | 42 |
| Cc1ccc(COC(=O)N2CCO[C@H](c3nc4cc(F)cnc4[nH]3)C2)cc1 [Example 31] | 16 | 132 |
